Experimental data: patent publication US4416826A, “Peresters and use thereof” (priority 1980, dated 1983)
Entries after “also recorded” stand apart in the source; their conditions may differ. Values belong to the molecule of their own block, whether it stands above or below them.

Key:
[1] = Photodecomposition kinetics and quantum yields at 366 nm (benzophenone-benzhydrol actinometry); format: physicochemical
Protocol: Kinetic studies are carried out in degassed, sealed tubes by irradiating them with 366 nm light obtained from a Hanovia medium-pressure mercury lamp by combining the Corning Filters 0-52 and 7-60. The decompositions of the […] followed by the carbonyl IR absorption adjacent to the peroxide group (O=COO--) (1770 cm^-1). Benzophenone-benzhydrol redox actinometry are used throughout the study. In particular, a solution of […] (2 mL) in the appropriate solvent is placed in Pyrex tubes (12-mm diameter), degassed, and sealed under vacuum. Three cycles of freeze-thaw removes dissolved oxygen. The tubes are placed in a merry-go-round around a water-cooled light source, removed at different predetermined intervals, and kept frozen in liquid nitrogen in the dark until analysis is done. The estimation of […] done by quantitative IR, monitoring the carbonyl peak at 1770 cm^-1. […] Absorbance is measured with a 0.1 mm NaCl cell against solvent reference. With every run, two tubes containing actinometric solutions (benzophenone (0.1 M) and benzhydrol (0.05 M) in benzene are irradiated.

[2] = Photolysis of peresters and analysis of photoproducts; format: physicochemical; settings: methanol compared with cyclohexane or with other peresters
Protocol: The amount of perester used is in the range of 300-500 mg. The solutions are placed in Pyrex tubes, flushed with nitrogen for 10 min., and sealed with a rubber cap.
After the irradiation, the yield of CO2 is measured by applying N2 pressure and trapping the CO2 with a Ba(OH)2 solution. The photolyzed solutions are evaporated (in the case of perester Ia treatment with excess diazomethane gives the best separation procedure) and again evaporated. Chromatography over 2 mm silica gel plates (E. Merck) with dichloromethane as the developing solvent separates the products. Extraction of the silica gel is done with ether. The identity of each sample is confirmed by GLC or high-pressure LC by comparison with authentic samples or by melting points of the solids.
This is shown by comparison with an authentic sample and combination of spectroscopic techniques. […] The same product is formed when 4-benzoylbenzoic acid is irradiated for 2 hours in CH3 OH in 26% yield. The structure of this secondary photoproduct is shown by independent synthesis (reduction of methyl 4-benzoylbenzoate by NaBH4). Among other secondary photoproducts found in small amounts is a mixture of pinacols. These are confirmed by synthesis of a similar pinacol mixture upon irradiation of methyl 4-benzoylbenzoate in isopropyl alcohol. […]

[3] = Stern-Volmer triplet quenching with naphthalene; format: physicochemical; settings: C6 H6
From the text: All the peresters give linear Stern-Volmer plots when naphthalene is used as triplet quencher.

[4] = Thermal stability / thermal decomposition of peresters in the dark; format: physicochemical
Triplet energy = format: physicochemical
[5] = Polymerization of methyl methacrylate; settings: initiator 5 × 10^-2 M, [MMA] = 3.1 M, 25° C., benzene
Protocol: Commercial methyl methacrylate monomer is washed three times with 2% NaOH solution to remove stabilizer. It is then washed with distilled water three times, dried with molecular sieves, and distilled under vacuum before use. Polymerization solutions are prepared in cylindrical tubes which are degassed and sealed. The amount of polymer formed is determined by precipitating the polymer with an excess of methanol, washing with methanol, and filtering through fine sintered crucibles (previously weighed) followed by drying in a vacuum oven. The irradiation condition is the same as that in the decomposition rate example hereinabove.

[6] = literature discussion; cited from earlier work
[7] = Polymerization of unsaturated polyester films under UV lamp (wipe resistance, pendulum hardness); settings: for Passes necessary to achieve resistance to wiping: 0.2 parts in 10 parts resin, 100μ film, 17 m/min
Protocol: This mixture is stirred until a solution is obtained, which is then drawn out on glass plates with a film drawer (100μ). […] The samples are passed, on a conveyer belt, under the UV-lamp at a rate of 17 m/min. (20 volts).
In addition, the hardness of the film is determined using a pendulum apparatus according to Konig.

[8] = Relative quantum yield of initiator decomposition in presence of monomer (IR at 1770 cm^-1); format: physicochemical; settings: for relative quantum yield φrel of decomposition: chloroform, initiator 2 × 10^-2 M
Protocol: (§1) Commercial styrene is washed three times with ice cold 2% NaOH solution followed by washing (four times) with distilled water. The styrene is dried over anhydrous CaCl2 and distilled under vacuum before use. The middle fraction of the distillate is used for polymerization. Solvents are purified by conventional means and distilled under N2 atmosphere.
(§2) The irradiations are carried out in degassed (three cycles of freeze-thaw under high vacuum) sealed 15-mm Pyrex tubes. The tubes are placed in a merry-go-round with a filtered UV source of 366 nm at the center and the yield of polymer is measured (below 10% conversion) gravimetrically. In all of the cases, tubes of the same size and same volume of solution are used. Number-average molecular weights of the purified polymers are determined by viscometry in a benzene solution. After the polymerization, an aliquot of 0.5 ml from each reaction tube is placed in 2-ml volumetric flasks. The solvent and excess monomer are evaporated under high vacuum for several hours. The remaining flask contents are dissolved in 0.5 ml of benzene or chloroform and the polymer is precipitated by adding 0.5 ml of n-hexane. The solution then is centrifuged and the IR of the centrifugate is measured to determine undecomposed perester. All of the above procedures are carried out as far as possible in the dark. The light intensity is measured by benzophenone-benzhydrol actinometry and observed to be Io =6.56×10^17 quanta/min on the average. The temperature of the tubes is maintained at 30° C.
The decomposition of the initiator employed is followed by IR at 1770 cm^-1 (caused by the carbonyl adjacent to the peroxy group) against an appropriate solvent blank. The initiators employed are .rho.-benzoylperoxybenzoic acid tert-butylester (Ia) and prior art benzophenone peroxide. In addition, the above procedure is repeated except that methyl methacrylate is employed in place of styrene. Table IX below illustrates the relative quantum yield for the decomposition of the initiators in the recited amounts of monomers, assuming that the quantum yield for the decomposition of the perester and peroxide in the absence of any monomer is one.

[9] = Photopolymerization of styrene, radical efficiency; settings: chloroform, [I] 5.00 × 10^-3 M
Protocol: as §1, §2
The efficiency of the radicals to initiate polymerization, f, in the absence of any appreciable amount of chain transfer, can be defined as [formula] assuming bimolecular termination by the combination of two growing chains only [formula] whereas kd =rate of decomposition of perester in mol/liter sec. in the absence of monomer (a function of light intensity).

Solubility in benzene = format: physicochemical
[10] = End group analysis of polystyrene by IR
Protocol: The polystyrene obtained from each of the above polymerizations is purified by repeated (four times) precipitation from benzene solution with methanol. Before each precipitation, the benzene solution is centrifuged to remove any insoluble material. The finely powdered polymer is filtered and dried under vacuum for two days. Known amounts of polymer are dissolved in benzene and the IR is taken (2000-1500 cm^-1) against benzene in 0.1-mm NaCl cells. The peaks at 1730 and 1670 cm^-1 for the carbonyl groups, caused by ester and benzophenones, respectively, are measured. […] The extinction coefficient of the carbonyl group at 1730 cm^-1 is compared with that of authenticated methyl benzoylbenzoate, which is used as a model to measure the concentration of the ester end groups in the polymer. From the concentration of the ester and the extinction resulting from the carbonyl group in the benzophenone, the absorption caused by the benzophenone that is present as the ester can be calculated. The value is subtracted from the absorption obtained at 1670 cm^- 1 for the polymer. From the resulting absorption, the concentration of benzophenone alone is estimated from the known extinction of benzophenone at that wavelength.

[11] = 110° C., chlorobenzene, dark, initial concn Ia 5.01, Ib 5.15, Ic 5.19 × 10^-2 M
[12] = Exp. 7: chloroform, [I] 5.0 × 10^-3 M, styrene 3.61 M
[13] = Exp. 8: chloroform, [I] 4.52 × 10^-3 M, styrene 4.33 M
[14] = Exp. 9: chloroform, [I] 4.94 × 10^-3 M, styrene 5.88 M

- apparent first-order photodecomposition rate constant kd × 10^4 ([1]; C6 H6, 25° C., 366 nm, I = 6.56 × 10^17 quanta/min, 5.03-6.06 × 10^-2 M, given as kd × 10^4): 1.34 s^-1
- quantum yield of decomposition (φ of dec) ([1]; C6 H6, 366 nm, perester 5.03-6.06 × 10^-2 M): 0.80
- quantum yield of decomposition (φ of dec) ([1]; methanol, TBP 5.08 × 10^-2 M, Ia 5.38, Ib 6.15 × 10^-2 M): 0.62
- quantum yield of decomposition (φ of dec) ([1]; methanol, no TBP, Ia 5.38, Ib 6.15, Ic 5.10 × 10^-2 M): 1.30
- quenching constant kq τ [3]: 15
- thermal half-life t1/2 [4, 11]: 10.7 h
- triplet energy ET (Triplet energy): 67.4 kcal/mol
Structure (SMILES): Cc1cc(C)c(C(=O)c2ccc(C(=O)OOC(C)(C)C)cc2)c(C)c1 [Ib, Tert-butyl-4-(2',4',6'-trimethylbenzoyl)perbenzoate]
- rate of photodecomposition, qualitative [2]: the effect of methanol is to slow the rate of decomposition; also recorded: apparently slower rate of decomposition in methanol than either that of Ia or Ic
- thermal 1st order dec rate × 10^5 [4, 11]: 1.80 M × 10^5 s^-1
- Rate of Polymerization (Rp) of MMA, Rp × 10^5 [5]: 8.31 mL^-1 s^-1

Structure (SMILES): C=Cc1ccccc1 [Styrene]
- triplet energy [6]: 62 kcal/mol

Structure (SMILES): COc1ccc(C(=O)c2ccc(C(=O)OOC(C)(C)C)cc2)cc1
- Passes necessary to achieve resistance to wiping [7]: 14
- Pendulum hardness according to Konig, H ([7]; after 14 passes): 23
- Pendulum hardness according to Konig, H ([7]; after 16 passes): 26

Structure (SMILES): O=C(c1ccccc1)c1ccccc1 [Benzophenone, reference compound]
- Passes necessary to achieve resistance to wiping [7]: > 20
- Pendulum hardness according to Konig, H ([7]; number of passes for hardness not given): wet
- triplet energy [6]: ~69 kcal/mol

Structure (SMILES): O=C(OOC(=O)c1ccccc1)c1ccccc1 [Bz2 O2, benzoyl peroxide, reference compound]
- photodecomposition behaviour, in words ([1]; 366 nm radiation, room temperature): photostable
- quantum yield of sensitized decomposition (φ of dec) ([1]; C6 H6, 4.67 × 10^-2 M, benzophenone 5.89 × 10^-2 M): 0.32
- sensitized photodecomposition rate constant kd × 10^4 ([1]; C6 H6, 25° C., 4.67 × 10^-2 M, benzophenone 5.89 × 10^-2 M, given as kd × 10^4): 0.64 s^-1
- quantum yield of sensitized decomposition (φ of dec) ([1]; CCl4, 3.50 × 10^-2 M, benzophenone 3.75 × 10^-2 M): 0.17
- thermal decomposition, in words ([4]; 80° C. in benzene): a decomposition rate comparable to the literature value
- Rate of Polymerization (Rp) of MMA, Rp × 10^5 ([5]; benzophenone 5.5 × 10^-2 M): 2.58 mL^-1 s^-1

- relative quantum yield φrel of decomposition ([8]; styrene 2.18 M): 0.05
- relative quantum yield φrel of decomposition ([8]; styrene 2.23 M): 0.06
- relative quantum yield φrel of decomposition ([8]; styrene 4.26 M): 0.08
- φrel ([9]; [M] 3.61 M): 0.08
- φrel ([9]; [M] 4.33 M): 0.08
- φrel ([9]; [M] 5.88 M): 0.08
- solubility in benzene (Solubility in benzene): insoluble in benzene
Structure (SMILES): O=C(OOC(=O)c1ccc(C(=O)c2ccccc2)cc1)c1ccc(C(=O)c2ccccc2)cc1 [Peroxide, reference compound]
- effect of styrene on quantum yield of decomposition, in words [8]: the quenching effect being greater with the peroxide than the perester
- Average degree of polymerization ([9]; [M] 3.61 M): 159.6
- Radical efficiency f ([9]; [M] 3.61 M): 0.33
- Rp × 10^5 ([9]; [M] 3.61 M): 1.07 mole/liter sec
- Average degree of polymerization ([9]; [M] 4.33 M): 155.8
- Radical efficiency f ([9]; [M] 4.33 M): 0.33
- Rp × 10^5 ([9]; [M] 4.33 M): 1.04 mole/liter sec
- Average degree of polymerization ([9]; [M] 5.88 M): 372.9
- Radical efficiency f ([9]; [M] 5.88 M): 0.26
- Rp × 10^5 ([9]; [M] 5.88 M): 1.72 mole/liter sec
- total number of benzophenones as end groups per chain, in words [10]: almost two
- end groups per chain, Benzophenone [10, 12]: 0.54
- end groups per chain, Benzophenone as ester [10, 12]: 1.29
- end groups per chain, Total [10, 12]: 1.83
- end groups per chain, Benzophenone [10, 13]: 0.62
- end groups per chain, Benzophenone as ester [10, 13]: 1.30
- end groups per chain, Total [10, 13]: 1.92
- end groups per chain, Benzophenone [10, 14]: 0.72
- end groups per chain, Benzophenone as ester [10, 14]: 1.36
- end groups per chain, Total [10, 14]: 2.08

Structure (SMILES): CC(C)(C)OOC(=O)c1ccc(C(=O)c2ccccc2)cc1 [drawing 15]
- Passes necessary to achieve resistance to wiping [7]: 12
- Pendulum hardness according to Konig, H ([7]; after 12 passes): 24
- Pendulum hardness according to Konig, H ([7]; after 14 passes): 38

Structure (SMILES): Cc1ccc(C(=O)c2ccc(C(=O)OOC(C)(C)C)cc2)cc1
- Passes necessary to achieve resistance to wiping [7]: 13
- Pendulum hardness according to Konig, H ([7]; after 13 passes): 23
- Pendulum hardness according to Konig, H ([7]; after 15 passes): 51
